Test results taken from US12059413B2, “Methods of inhibiting viruses using compositions targeting TSG101-ubiquitin interaction” (The Research Foundation for the State University of New York, priority 2016, dated 2024).

Tests used:
[1] = test system: Tsg101 midbody localization; assay: Tsg101 midbody localization in dividing cells; type: cell-based; details: N16 50 uM; 200 cells sampled; 12% in absence
Protocol: FIG. 20A-C. N16 inhibition is virus-specific. A) N16 IC50 for Hela and 293T cells. […] Values were calculated by measuring metabolic activity (WST-1 Assay, Roche Applied Science) after cells were grown for 24 hr in N16. Data points represent the mean of 2 assays, 3 time points each for each cell line. […] Values in the absence or presence of N16 (50 uM) were 12% and 13%, respectively). C) N16 effect on EGF-stimulated EFGR degradation. Cells maintained for 24 hr in media containing DMSO alone or DMSO and N16 were stimulated with EGF ligand for a 90 min period and then assessed for EGFR steady-state level by Western analysis. EGFR levels for unstimulated and stimulated sample pairs are shown. A) n=2; B) n=2; C) n=2.
We investigated the specificity of the inhibitory effect. F15 and N16 impaired Tsg101-co-localization with Gag on the plasma membrane (c.f, FIG. 19) and reduced release of the VLPs assembled by Gag (c.f, FIG. 15). […] Cell metabolic activity was not affected after exposure to N16 for 24 hr; it decreased by less than 10% after exposure to N16 for 48 hr (not shown). Tsg101 localization to the midbody of dividing cells requires its recruitment to that location by centrosomal protein of 55k (CEP55) which binds a site in the Tsg101 Pro-rich domain (aa 154-166) (Lee, H. H., et al. (2008)). […]

cells = assay: Cytotoxicity / cell metabolic activity on exposure to N16; type: cell-based
Excerpt: We investigated the specificity of the inhibitory effect. F15 and N16 impaired Tsg101-co-localization with Gag on the plasma membrane (c.f, FIG. 19) and reduced release of the VLPs assembled by Gag (c.f, FIG. 15). […] Cell metabolic activity was not affected after exposure to N16 for 24 hr; it decreased by less than 10% after exposure to N16 for 48 hr (not shown). Tsg101 localization to the midbody of dividing cells requires its recruitment to that location by centrosomal protein of 55k (CEP55) which binds a site in the Tsg101 Pro-rich domain (aa 154-166) (Lee, H. H., et al. (2008)). Finding this function unaffected at a concentration inhibitory to virus budding is consistent with the lack of any indication that cell division was reduced in the presence of N16. The lack of effect on this function also supports the specificity of N16 targeting as limited to functions of the Tsg101 UEV domain. EGF ligand-binding to EGFR on the cell surface signals receptor internalization, ubiquitination, and sequential ESCRT 0-, I-, II- and III-mediated transport to degradative compartments, ultimately lowering the EGFR steady-state level (Tomas, A., et al. (2014)). This trafficking requires the engagement of the P(T/S)AP-binding pocket in the Tsg101 UEV domain with the PSAP motif in hepatocyte growth factor-regulated tyrosine kinase substrate (Hrs), a component of ESCRT-0 (Lu, Q., et al. (2003)). The down-regulation function remained unimpaired at concentrations well above 50 JAM.

`COc1ccc2[nH]c([S+]([O-])Cc3ncc(C)c(OC)c3C)nc2n1` (stereo not shown) [N16, tenatoprazole] was tested, and the “frequency of cells exhibiting Tsg101 midbody localization” value [1] was 13%, the cytotoxicity (cells; 50 μM, 24 hr exposure) was “did not induce detectable cytotoxicity” and the cell metabolic activity (cells; exposure to N16 for 24 hr) was “not affected”. The “decrease of cell metabolic activity” value (cells; exposure to N16 for 48 hr, not shown) was “less than 10%”.
